The values that follow come from publication PMC5850989 (Toxicology letters, 2016).

One data set deals with CaCo-2 cells. The settings on record: average for Enn A, A1, B and B1, ref Meca et al., 2012; cited from earlier work.
The conditions of data set [1]: ref Manyes et al., 2014, cited from earlier work.
The format of data set [2] is in vivo, CB-17 scid/scid mice. The settings on record: KB-3-1 xenograft.
The format of data set [3] is in vivo, SCID mice. The settings on record: 5 mg/kg i.p.
The nature of data set [4]: Evaluation of toxicological effects: body weight, behavior, histology. In kind it is in vivo, SCID mice. The settings on record: 5 mg/kg i.p., short-term and 9-day schedules.
Where [5] appears, read: 5 mg/kg b.w. i.p. daily, 9 days, mean ± SD (n = 4).

Turning to `CC[C@H](C)[C@H]1C(=O)O[C@H](C(C)C)C(=O)N(C)[C@@H]([C@@H](C)CC)C(=O)O[C@H](C(C)C)C(=O)N(C)[C@@H](C(C)C)C(=O)O[C@H](C(C)C)C(=O)N1C` [Enn A1], in the data set on CaCo-2 cells, the Apparent mean bioavailability is 80%.
Consider `CC[C@H](C)[C@H]1C(=O)O[C@H](C(C)C)C(=O)N(C)[C@@H]([C@@H](C)CC)C(=O)O[C@H](C(C)C)C(=O)N(C)[C@@H]([C@@H](C)CC)C(=O)O[C@H](C(C)C)C(=O)N1C` [Enn A], for which the Apparent mean bioavailability with CaCo-2 cells is listed as 80%. Also, the Detection in kidneys entry in data set [1] (Enn A-fed Wistar rats) is listed as “no Enn A was detected in kidneys”. Also, the “Adverse effects (histological analyses, biochemical blood parameters)” value in data set [1] (repeated dose 20.91 mg Enn A/kg b.w./day, 28 days, feed) is listed as “no adverse effects”.
Take `CC(C)[C@H]1C(=O)O[C@H](C(C)C)C(=O)N(C)[C@@H](C(C)C)C(=O)O[C@H](C(C)C)C(=O)N(C)[C@@H](C(C)C)C(=O)O[C@H](C(C)C)C(=O)N1C` [Enn B, Enniatin B]: in data set [2] (setting [5]), the Concentration in serum is 5.4 ± 0.2 µg/kg and the Concentration in tumor turned out to be 2.8 ± 0.8 µg/kg. Also, the “Degradation products (metabolites) in tumor tissues” value in data set [2] (9-day treatment, 5 mg/kg i.p.) is given as “no degradation products could be found”. The “Concentration in liver, quantified with Enn B calibration curve” value in data set [3] (2-days Enn B-treated SCID mice) was 2.9 ± 0.6 µg/kg. Moreover, the “Metabolites in serum, brain, muscle and kidney” value in data set [3] (short-term treatment) was “no metabolites were found”. The “Apparent signs of toxicity (food and fluid consumption, fatigue, body weight alterations)” value in data set [4] is on record as “None of the treatment schedules showed apparent signs of toxicity”. Also, the Apparent mean bioavailability in the data set on CaCo-2 cells is 80%.
With `CC(C)C1NC(=O)C(C(C)C)OC(=O)C(C(C)C)N(C)C(=O)C(C(C)C)OC(=O)C(C(C)C)N(C)C(=O)C(C(C)C)OC1=O` (stereo not shown) [Mono-demethylated-Enn B], in data set [3] (2-days Enn B-treated SCID mice), the “Concentration in colon, quantified with Enn B calibration curve” value is given as 0.6 ± 0.09 µg/kg and the “Concentration in liver, quantified with Enn B calibration curve” value worked out at 0.7 ± 0.1 µg/kg.
